# Reference: patent US9708314B2, “Heterocyclic amide compound” (NISSAN CHEMICAL INDUSTRIES, LTD., priority 2013, dated 2017)
# Key:
# Type in all cases: in vivo
# Lolium multiflorum Lam. = experiment: Test Example 4: herbicidal effect by application to foliage (diluvial soil, plastic box); settings: for K: herbicidal effect on Lolium multiflorum Lam.: application to foliage, application herbicide amount 320 g/ha
# Summary of the method: (§1)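 Plants were grown in sterilized diluvial soil in a greenhouse at 25-30° C for 14 days, then sprayed on stems and leaves with water-diluted emulsion formulation at set rates in g/ha. Weed control and crop injury were scored 3 weeks after treatment on a 0-5 herbicidal-ratio scale, from 0 (≤5%) to 5 (≥90%).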
# Stellaria media = experiment: as above; settings: application to foliage, application herbicide amount 320 g/ha
# Summary of the method: as §1
# Alopecurus myosuroides = experiment: as above; settings: for J: herbicidal effect on Alopecurus myosuroides: application to foliage, application herbicide amount 320 g/ha
# Summary of the method: as §1
# Amaranthus retroflexus = experiment: as above; settings: for N: herbicidal effect on Amaranthus retroflexus: application to foliage, application herbicide amount 320 g/ha
# Summary of the method: as §1
# Digitaria ciliaris = experiment: as above; settings: for F: herbicidal effect on Digitaria ciliaris: application to foliage, application herbicide amount 320 g/ha
# Summary of the method: as §1
# Setaria viridis = experiment: as above; settings: for G: herbicidal effect on Setaria viridis: application to foliage, application herbicide amount 320 g/ha
# Summary of the method: as §1
# Monochoria vaginalis = experiment: Test Example 1: herbicidal activity, application before weed generation in submerged conditions; settings: Application herbicide amount 320 g/ha; Seventeenth Table
# Summary of the method: (§2)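 Pre-emergence application to water surface of submerged pots (4 cm depth, alluvial soil) on sowing day, with 2.5-leaf rice transplanted; emulsion diluted to g/ha rates. Grown in greenhouse at 25–30 °C; 0–5 herbicidal/crop-effect score after three weeks.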
# Scirpus juncoides = experiment: as above; settings: Application herbicide amount 320 g/ha; Seventeenth Table
# Summary of the method: as §2
# [1] = system: Echinochloa oryzacola Vasing.; experiment: as above; settings: Application herbicide amount 320 g/ha; Seventeenth Table
# Summary of the method: as §2
SMILES,K: herbicidal effect on Lolium multiflorum Lam. (Lolium multiflorum Lam.),P: herbicidal effect on Stellaria media (Stellaria media),J: herbicidal effect on Alopecurus myosuroides (Alopecurus myosuroides),N: herbicidal effect on Amaranthus retroflexus (Amaranthus retroflexus),F: herbicidal effect on Digitaria ciliaris (Digitaria ciliaris),G: herbicidal effect on Setaria viridis (Setaria viridis),C: Monochoria vaginalis (herbicidal effect grade) (Monochoria vaginalis),B: Scirpus juncoides (herbicidal effect grade) (Scirpus juncoides),"K (Lolium multiflorum Lam.) herbicidal effect grade (Lolium multiflorum Lam.; foliage application, 320 g/ha)","J (Alopecurus myosuroides) herbicidal effect grade (Alopecurus myosuroides; foliage application, 320 g/ha)","N (Amaranthus retroflexus) herbicidal effect grade (Amaranthus retroflexus; foliage application, 320 g/ha)","F (Digitaria ciliaris) herbicidal effect grade (Digitaria ciliaris; foliage application, 320 g/ha)","G (Setaria viridis) herbicidal effect grade (Setaria viridis; foliage application, 320 g/ha)",A: Echinochloa oryzicola Vasing. (herbicidal effect grade) [1]
Cc1nnc(NC(=O)c2ccc(C(F)(F)F)n3c(SC4CCCC4)nnc23)o1 [1-154],0 (Herbicidal ratio of 5% or less (almost no effect)),4 (Herbicidal ratio of 70% or more and less than 90%),0 (Herbicidal ratio of 5% or less (almost no effect)),2 (Herbicidal ratio of 20% or more and less than 40%),3 (Herbicidal ratio of 40% or more and less than 70%),2 (Herbicidal ratio of 20% or more and less than 40%),2 (Herbicidal ratio of 20% or more and less than 40%),3 (Herbicidal ratio of 40% or more and less than 70%),–,–,–,–,–,–
O=C(Nc1nnco1)c1ccc(C(F)(F)F)n2c(SC3CCCC3)nnc12 [1-155],0 (Herbicidal ratio of 5% or less (almost no effect)),–,0 (Herbicidal ratio of 5% or less (almost no effect)),3 (Herbicidal ratio of 40% or more and less than 70%),3 (Herbicidal ratio of 40% or more and less than 70%),1 (Herbicidal ratio of 5% or more and less than 20%),3 (Herbicidal ratio of 40% or more and less than 70%),4 (Herbicidal ratio of 70% or more and less than 90%),–,–,–,–,–,–
Cc1nnc(NC(=O)c2ccc(C(F)(F)F)n3c(SCc4ccc(Cl)nc4)nnc23)o1 [1-156],1 (Herbicidal ratio of 5% or more and less than 20%),4 (Herbicidal ratio of 70% or more and less than 90%),1 (Herbicidal ratio of 5% or more and less than 20%),3 (Herbicidal ratio of 40% or more and less than 70%),2 (Herbicidal ratio of 20% or more and less than 40%),1 (Herbicidal ratio of 5% or more and less than 20%),0 (Herbicidal ratio of 5% or less (almost no effect)),2 (Herbicidal ratio of 20% or more and less than 40%),–,–,–,–,–,–
O=C(Nc1nnco1)c1ccc(C(F)(F)F)n2c(SCc3ccc(Cl)nc3)nnc12 [1-157],1 (Herbicidal ratio of 5% or more and less than 20%),–,1 (Herbicidal ratio of 5% or more and less than 20%),3 (Herbicidal ratio of 40% or more and less than 70%),3 (Herbicidal ratio of 40% or more and less than 70%),1 (Herbicidal ratio of 5% or more and less than 20%),2 (Herbicidal ratio of 20% or more and less than 40%),3 (Herbicidal ratio of 40% or more and less than 70%),–,–,–,–,–,–
CC(C)c1nnc2c(C(=O)Nc3nnnn3C)ccc(C(F)(F)C(F)(F)F)n12 [2-049],–,–,–,–,–,–,4 (Herbicidal ratio of 70% or more and less than 90%),5 (Herbicidal ratio of 90% or more (almost completely withered)),3 (Herbicidal ratio of 40% or more and less than 70%),1 (Herbicidal ratio of 5% or more and less than 20%),3 (Herbicidal ratio of 40% or more and less than 70%),5 (Herbicidal ratio of 90% or more (almost completely withered)),5 (Herbicidal ratio of 90% or more (almost completely withered)),5 (Herbicidal ratio of 90% or more (almost completely withered))
